The values that follow come from paper PMC4866688, “Trypanosoma brucei DHFR-TS Revisited: Characterisation of a Bifunctional and Highly Unstable Recombinant Dihydrofolate Reductase-Thymidylate Synthase” (PLoS Neglected Tropical Diseases, 2016).

“And” between values parts separate entries of the source, which are not always exact repeats. Equal values may be shown once. Read-outs that look alike come from different tables or passages of the source.

Test [1] deals with T1, T. brucei TS (Tsf-TbDHFR-TS) (Trypanosoma brucei brucei, UniProt Q27783).
T1 construct: The open reading frame of DHFR-TS was amplified by PCR from T. brucei gDNA using specific oligonucleotides; made in house; host or cells: thyA- E. coli derived from BL21 Star (DE3); unpurified clarified lysate
Kind of test: Inhibition of TS activity of Tsf-TbDHFR-TS in clarified thyA- E. coli lysate. The conditions noted are these: for Ki: TS Ki, T. brucei; for Ki / TS Ki, T. brucei: 100 μM CH2THF, 200 μM dUMP, 200 nM Tsf-TbDHFR-TS, Inactive * = no inhibition at 25 μM, ** = no inhibition at 100 μM. In kind it is biochemical. Here is the method: (§1) The initial characterisation of TS was also carried out using a spectrophotometric assay. […] Enzymatic reactions were initiated by the addition of CH2THF (200 μM, Shircks Laboratories) and initial rates of CH2THF oxidation to DHF monitored by the increase in absorbance at 340 nm (ε = 6,200 M^-1 cm^-1). […] Residual 5-[^3H]-dUMP was removed by the addition of 200 μl of 10% (w/v) activated charcoal (Sigma). Aliquots (100 μl) of the supernatants were added to 2 ml of scintillation fluid (Pico-Fluor 40™, Packard Bioscience) and radioactivity determined using a Beckmann LS 6500 Scintillation Counter. To determine TS activity in clarified T. brucei lysates the incubation time was increased to 30 min and the assay volume was increased to ~200 μl. […] For stability experiments all lysates were desalted using 0.5 ml Zeba Spin Desalting Columns (7K MWCO). Protein concentrations were determined using the BioRad protein assay based on the method of Bradford. Inhibitors (8-point doubling dilutions) were assayed using the radiometric method in the presence of 100 μM CH2THF, 200 μM dUMP and 200 nM Tsf-TbDHFR-TS.
Target sequence in this assay (Q27783 whole entry): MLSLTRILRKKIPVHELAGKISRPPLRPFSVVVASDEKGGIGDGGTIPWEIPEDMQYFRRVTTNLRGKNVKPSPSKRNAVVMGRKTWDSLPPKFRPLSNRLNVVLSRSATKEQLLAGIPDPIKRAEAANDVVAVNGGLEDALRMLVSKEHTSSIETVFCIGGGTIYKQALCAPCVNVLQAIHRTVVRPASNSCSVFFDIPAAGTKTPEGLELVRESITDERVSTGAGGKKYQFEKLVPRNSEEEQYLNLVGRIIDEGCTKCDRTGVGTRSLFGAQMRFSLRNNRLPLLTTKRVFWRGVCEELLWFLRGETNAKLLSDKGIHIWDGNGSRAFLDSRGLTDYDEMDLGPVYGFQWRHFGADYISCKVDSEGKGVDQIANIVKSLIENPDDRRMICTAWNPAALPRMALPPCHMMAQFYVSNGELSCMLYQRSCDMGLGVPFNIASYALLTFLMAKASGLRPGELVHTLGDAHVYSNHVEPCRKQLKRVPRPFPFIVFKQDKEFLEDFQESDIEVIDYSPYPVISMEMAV
Target sequence in this assay (P0A6P1 whole entry, further chain): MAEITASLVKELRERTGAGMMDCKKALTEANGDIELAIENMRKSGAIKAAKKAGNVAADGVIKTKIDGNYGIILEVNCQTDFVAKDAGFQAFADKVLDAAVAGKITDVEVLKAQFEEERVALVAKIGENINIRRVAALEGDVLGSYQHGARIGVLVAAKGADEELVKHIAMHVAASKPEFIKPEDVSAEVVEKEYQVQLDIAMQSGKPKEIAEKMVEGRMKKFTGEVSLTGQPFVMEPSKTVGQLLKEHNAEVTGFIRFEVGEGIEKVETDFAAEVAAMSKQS

In test [2] the target is T2, T. brucei DHFR (Tsf-TbDHFR-TS) (Trypanosoma brucei brucei, UniProt Q27783). The experiment in a line: Kinetic analysis of DHFR activity (substrates). The class given is biochemical. Also noted: The open reading frame of DHFR-TS was amplified by PCR from T. brucei gDNA using specific oligonucleotides; made in house; host or cells: thyA- E. coli derived from BL21 Star (DE3). The conditions noted are these: for Activity as substrate for T. brucei DHFR: <17,000-fold (folate) and <2,300-fold (pterins) compared to DHF as substrate.
T2 sequence (Q27783 whole entry): as the sequence (Q27783 whole entry) above

The target of test [3] is T2, T. brucei DHFR (Tsf-TbDHFR-TS). Kind of test: Inhibition of DHFR activity of recombinant Tsf-TbDHFR-TS (spectrophotometric, 340 nm). The conditions noted are these: for Modality of inhibition of DHFR: with respect to DHF.
Method: DHFR activity was determined spectrophotometrically at 340 nm [18]. DHFR (5 nM) was pre-incubated with 100 μM NADPH (Medford) in assay buffer (50 mM HEPES, pH 7.4, containing 100 mM KCl) for 1 min at 25°C (1 ml final assay volume), before the addition of 100 μM DHF (Sigma Aldrich). […] The Km^app values for DHFR substrates were determined by varying the concentration of one substrate in the presence of a fixed saturating concentration of the other. IC50 values were determined using 8-point doubling dilutions of inhibitor under the above standard assay conditions.
Results were analysed by non-linear regression using GraFit v 5.0.13 (Erithacus Software). Km^app values were determined using the Michaelis-Menten equation. IC50 values were determined using eq 1 and Ki values calculated using the Cheng-Prusoff eq 2 [23].
Another test concerns the target Human TS. The conditions noted are these: cited from earlier work.
In test [4] the test system is T. brucei bloodstream-form 'single marker' S427. Kind of test: Growth inhibition of wild type T. brucei, 72 h, resazurin-based assay. The class given is cell-based. The conditions noted are these: Trypanosoma brucei. As for the experimental part:
Wild type (WT) T. brucei bloodstream-form ‘single marker’ S427 were cultured in HMI9T medium supplemented with 2.5 μg ml^-1 G418 to maintain expression of T7 RNA polymerase and the tetracycline repressor protein [27]. HMI9T medium (standard media for T. brucei cell culture) contains high concentrations of folate (~9 μM) and thymidine (~160 μM) principally from IMDM and 10% Serum Plus components. A medium based on HMI9T, only lacking Serum Plus, folate and thymidine was prepared in-house, named trypanosome base media (TBM; the residual folate is provided by the serum component). A comparison of these media is described in S2 Table. WT T. brucei cells grow normally in TBM and the rate of growth is similar to HMI9T in TBM with no supplementation, supplementation with 9 μM folate, 160 μM thymidine or supplementation with both folate and thymidine (7–8 h doubling time).
EC50 of antifolates against T. brucei were determined in 96-well microtitre plates. Serial doubling dilutions of antifolate drugs (10–50 mM stocks prepared in DMSO) were prepared in 100 μl of the appropriate medium and trypanosomes (resuspended in the same medium) added in 100 μl to give a final concentration of 2.5 × 10^3 cells ml^-1. All wells, including controls, contained a final volume of 0.5% DMSO. Cultures were incubated for 72 h at 37°C / 5% CO2 before cell density was determined using a resazurin-based assay. EC50 values were calculated using GraFit v 5.0.13 (Erithacus Software) with a 3-parameter non-linear regression from triplicate readings. Antifolates were tested against parasites cultured in TBM; this allowed for the addition of thymidine (160 μM) and folate (9 μM) respectively.

Another test deals with Human DHFR. The following applies: cited from earlier work.
In test [5] the target is T1, T. brucei TS (Tsf-TbDHFR-TS). Kind of test: Stabilisation of recombinant T. brucei TS activity in desalted, diluted lysate. The class given is biochemical. Here is the method:
as §1
Target sequence in this assay (Q27783 whole entry): as above
Target sequence in this assay (P0A6P1 whole entry partner): as the sequence (P0A6P1 whole entry, further chain) above

Where [6] appears, read: TBM (folate and thymidine deficient), read-out: EC50, No addition.
Setting [7] is: TBM + folate (9 μM), read-out: EC50, + Folate.
Setting [8] is: TBM + thymidine (160 μM) + folate (9 μM), read-out: EC50, + Thymidine + Folate.
Where [9] appears, read: TBM + thymidine (160 μM), read-out: EC50, + Thymidine.
Where [10] appears, read: DHFR Ki, T. brucei, recombinant TbDHFR-TS, from IC50 (Cheng-Prusoff) or Morrison equation for tight binders, Inactive ** = no inhibition at 100 μM.
Where [11] appears, read: DHFR Ki (competitive inhibition, global fit, Fig 5), varying DHF, fixed amounts of inhibitor, non-linear regression.

In test [1] (reducing agent at higher concentrations, clarified lysate), `OCCS` [2-mercaptoethanol] yielded an EC50 of about 100000 µM.
As a reminder, the Km is the concentration of substrate that gives half-maximal velocity. As for `Nc1nc(=O)c2c([nH]1)NCC(CNc1ccc(C(=O)N[C@@H](CCC(=O)O)C(=O)O)cc1)=N2` [DHF, dihydrofolate], the Km in test [2] (Tsf-TbDHFR-TS, purified, 50 mM HEPES pH 7.4, 100 mM KCl, read-out: DHF Km^app) is 4.1 ± 0.6 µM; in test [2] (Tsf-cleaved TbDHFR-TS, read-out: DHF Km^app), 4.2 ± 0.5 µM; in test [2] (purified enzyme, read-out: DHFR Km^app (Fig 4 legend)) it was 4.1 ± 0.6 µM.
Broadly, the Ki is the equilibrium dissociation constant of an inhibitor or competing ligand from its target. Regarding `O=c1[nH]c(=O)n([C@H]2C[C@H](O)[C@@H](COP(=O)(O)O)O2)cc1F` [FdUMP, 5-fluorodeoxyuridine monophosphate], the inhibition constant Ki in test [1] was 0.014 µM and 0.0138 µM; at Human TS (ref Dolnick and Cheng [32]), 0.0017 µM. The “Modality of inhibition of TS” value in test [1] (dUMP-competitive) is reported as “tight-binding inhibition”. Further, the “DHFR Ki, T. brucei” value in test [3] (recombinant TbDHFR-TS, from IC50 (Cheng-Prusoff) or Morrison equation for tight binders, Inactive ** = no inhibition at 100 μM) was “Inactive ^**”.
As for `Nc1nc(=O)c2nc(CNc3ccc(C(=O)N[C@@H](CCC(=O)O)C(=O)O)cc3)cnc2[nH]1` [Folic acid], the “Activity as substrate for T. brucei DHFR” value in test [2] was “inactive”.
`CN(Cc1cnc2nc(N)nc(N)c2n1)c1ccc(C(=O)N[C@@H](CCC(=O)O)C(=O)O)cc1` [Methotrexate, methotrexate]: the “Modality of inhibition of DHFR” value in test [3] is on record as “tight-binding inhibitors”. Further, the EC50 was determined as 0.012 ± 0.001 µM in test [4] (setting [6]), 1.31 ± 0.13 µM in test [4] (setting [7]), 8.16 ± 2.78 µM in test [4] (setting [8]) and 0.12 ± 0.03 µM in test [4] (setting [9]).
Regarding `NC(=O)C1=CN([C@@H]2O[C@H](COP(=O)(O)OP(=O)(O)OC[C@H]3O[C@@H](n4cnc5c(N)ncnc54)[C@H](OP(=O)(O)O)[C@@H]3O)[C@@H](O)[C@H]2O)C=CC1` [NADPH], the Km in test [2] (Tsf-TbDHFR-TS, purified, read-out: NADPH Km^app) worked out at 1.7 ± 0.2 µM.
With `Cc1ccc2nc(N)[nH]c(=O)c2c1Sc1ccncc1` [Nolatrexed, nolatrexed], the Ki in test [1] was 0.039 µM and 0.0394 µM; in test [3] (setting [10]), 0.348 ± 0.03 µM. Also, the “DHFR Ki, Human” value in the test on Human DHFR (ref Webber et al. [10]) is recorded as “Inactive^h”. The EC50 turned out to be 21.8 ± 2 µM in test [4] (read-out: EC50, + Folate); 32.7 ± 4.7 µM in test [4] (read-out: EC50, + Thymidine); 39.6 ± 7.2 µM in test [4] (read-out: EC50, + Thymidine + Folate); 33.8 ± 3.7 µM in test [4] (read-out: EC50, No addition).
Take `Nc1nc2[nH]cc(CCc3ccc(C(=O)N[C@@H](CCC(=O)O)C(=O)O)cc3)c2c(=O)[nH]1` [Pemetrexed, pemetrexed]: the Ki was 20.5 µM in test [1], 0.29 ± 0.02 µM in test [3] (setting [10]) and 0.007 µM on Human DHFR (ref Shih et al. [11]). For the same compound, the EC50 is 0.02 ± 0.001 µM in test [4] (setting [6]), 12.9 ± 1.1 µM in test [4] (setting [7]), over 250 µM in test [4] (setting [8]) and over 250 µM in test [4] (setting [9]).
Regarding `CCc1nc(N)nc(N)c1-c1ccc(Cl)cc1` [Pyrimethamine, pyrimethamine], the “TS Ki, T. brucei” value in test [1] is reported as “Inactive ^**”. In test [3], the “Modality of inhibition of DHFR” value is reported as “competitive inhibitors”. In addition, the EC50 in test [4] (setting [6]) worked out at 2.26 ± 0.32 µM; in test [4] (setting [7]) it was 6.32 ± 0.71 µM; in test [4] (setting [8]), 6.87 ± 0.33 µM; in test [4] (setting [9]), 2.01 ± 0.34 µM.
Consider `Cc1nc2ccc(CN(C)c3ccc(C(=O)N[C@@H](CCC(=O)O)C(=O)O)s3)cc2c(=O)[nH]1` [Raltitrexed, raltitrexed], for which the Ki in test [1] is 0.215 ± 0.018 µM; in test [3] (setting [11]) it was 0.0704 ± 0.0072 µM; in test [3] (setting [10]), 0.0931 ± 0.0079 µM; on Human DHFR (ref Jackman et al. [12]), 0.093 µM; at Human TS (ref Jackman et al. [12]), 0.06 µM. Besides, in test [3], the “Modality of inhibition of DHFR” value is on record as “competitive inhibitors”. The EC50 in test [4] (setting [6]) is 0.038 ± 0.001 µM; in test [4] (setting [7]) it was 64.8 ± 4.3 µM; in test [4] (setting [8]), over 250 µM; in test [4] (setting [9]) it was over 250 µM.
For the compound `COc1cc(Cc2cnc(N)nc2N)cc(OC)c1OC` [Trimethoprim, trimethoprim], the Ki was 0.0114 ± 0.0012 µM in test [3] (setting [11]) and 0.0176 ± 0.0015 µM in test [3] (setting [10]). Also, the “Modality of inhibition of DHFR” value in test [3] is on record as “competitive inhibitors”. Further, the EC50 in test [4] (setting [6]) came to 48.8 ± 3.7 µM; in test [4] (setting [7]) it was 170 ± 28 µM; in test [4] (setting [8]), 145 ± 22 µM; in test [4] (setting [9]), 59.8 ± 8.6 µM.
`COc1cc(NCc2ccc3nc(N)nc(N)c3c2C)cc(OC)c1OC` [Trimetrexate, trimetrexate]: the “TS Ki, T. brucei” value in test [1] is listed as “Inactive ^*”. In test [3] (setting [10]), the Ki is 0.0006 µM and 0.000597 µM. The “Modality of inhibition of DHFR” value in test [3] is on record as “tight-binding inhibitors”. Besides, the EC50 came out at 0.32 ± 0.02 µM in test [4] (setting [6]), 1.23 ± 0.06 µM in test [4] (setting [7]), 4.09 ± 0.35 µM in test [4] (setting [8]) and 2.82 ± 0.36 µM in test [4] (setting [9]).
Take `O=c1ccn([C@H]2C[C@H](O)[C@@H](COP(=O)(O)O)O2)c(=O)[nH]1` [dUMP, deoxyuridine monophosphate]: in test [5] (200 μM dUMP vs no dUMP), the “Increase in stability of TS activity” value worked out at 700 fold. In addition, the EC50 in test [5] (absence of CH2THF, diluted lysate incubated 10 min, read-out: Half maximal concentration required to stabilise TS activity) was found to be 12.6 ± 2.5 µM.
As to `C[C@H](O)[C@H](O)C1=Nc2c(nc(N)[nH]c2=O)NC1` [dihydrobiopterin], the “Activity as substrate for T. brucei DHFR” value in test [2] was “inactive”.
On to `Nc1nc2ncc([C@H](O)[C@H](O)CO)nc2c(=O)[nH]1` [neopterin], for which the “Activity as substrate for T. brucei DHFR” value in test [2] is “inactive”.
Consider `C[C@H](O)C(=O)C1=Nc2c(nc(N)[nH]c2=O)NC1` [sepiapterin], for which the “Activity as substrate for T. brucei DHFR” value in test [2] was “inactive”.
Consider biopterin, for which the “Activity as substrate for T. brucei DHFR” value in test [2] is “inactive”.
